Measurements reported in the NIST ThermoML archive (doi:10.1016/j.jct.2016.10.033).

Test: xn = mol fraction of the nth substance listed
Settings: 103 kPa, Liquid, Vibrating tube method

C=C[Si](C)(OCC)OCC [methylvinyldiethoxysilane] + CO[Si](C)(OC)c1ccccc1
mass density [kg/m3]
Settings	298.15 K	303.15 K	308.15 K	313.15 K	318.15 K
x2 = 0	856.25	851.09	845.89	840.71	835.44
x2 = 0.05	863.72	858.61	853.46	848.28	843.09
x2 = 0.1001	871.17	866.08	860.96	855.82	850.66
x2 = 0.1499	878.58	873.53	868.43	863.33	858.2
x2 = 0.2001	885.98	880.95	875.9	870.83	865.74
x2 = 0.2501	893.45	888.45	883.43	878.38	873.33
x2 = 0.3	900.68	895.69	890.69	885.67	880.64
x2 = 0.3499	907.99	903.05	898.08	893.09	888.08
x2 = 0.4	915.28	910.36	905.41	900.45	895.47
x2 = 0.4501	922.58	917.68	912.77	907.84	902.89
x2 = 0.5	929.75	924.84	919.93	915	910.05
x2 = 0.5499	937	932.14	927.28	922.39	917.49
x2 = 0.6	944.21	939.4	934.57	929.72	924.87
x2 = 0.65	951.55	946.75	941.94	937.11	932.27
x2 = 0.6999	958.48	953.71	948.92	944.12	939.31
x2 = 0.75	965.63	960.89	956.12	951.35	946.57
x2 = 0.7999	972.72	968	963.25	958.51	953.74
x2 = 0.85	979.76	975.05	970.33	965.59	960.85
x2 = 0.8998	987.03	982.34	977.65	972.94	968.23
x2 = 0.9499	993.78	989.11	984.43	979.74	975.03
